According to patent US20110054188A1, “NEAR INFRARED FLUORESCENT IMAGING AGENT” (FUJIFILM Corporation, priority 2009, published 2011):

Key:
Format in all cases: in vitro ADME
Conditions in all cases: 5 μM, equilibrium dialysis 4 hours at 37° C.
plasma protein [1] = assay: Plasma protein binding rate test by equilibrium dialysis method, rabbit plasma
Description: (§1) Plasma protein binding rates of the compounds were determined by equilibrium dialysis method (W. Lindner et al, J. Chromatography, 1996, 677, 1-28). Each test compound was dissolved in distilled water at concentration of 200 μM. The solution was added to the plasma of mouse, dog, rabbit, monkey and human respectively, at the amount to obtain the final concentration of 5 μM. This solution (300 μL) and PBS solution (500 μL) were added to each dialysis cell of equilibrium dialysis unit RED device (Pierce Biotechnology), and the cells were shaken at 100 rpm at 37° C. After 4 hours, samples of plasma and the buffer were collected, and the fluorescence intensity of each was measured by EnVision ([…]). After the concentrations were calculated from a calibration curve, the concentrations (%) of free test compound in plasma were determined.

plasma protein [2] = assay: Plasma protein binding rate test by equilibrium dialysis method, human plasma
Description: as §1

plasma protein [3] = assay: Plasma protein binding rate test by equilibrium dialysis method, mouse plasma
Description: as §1

plasma protein [4] = assay: Plasma protein binding rate test by equilibrium dialysis method, monkey plasma
Description: as §1

plasma protein [5] = assay: Plasma protein binding rate test by equilibrium dialysis method, dog plasma
Description: as §1

| Compound | Plasma protein binding rate (%) rabbit (plasma protein [1]) | Plasma protein binding rate (%) human (plasma protein [2]) | Plasma protein binding rate (%) mouse (plasma protein [3]) | Plasma protein binding rate (%) monkey (plasma protein [4]) | Plasma protein binding rate (%) dog (plasma protein [5]) |
| --- | --- | --- | --- | --- | --- |
| CC1(C)C(/C=C/C=C/C=C/C=C2\N(CC(=O)O)c3ccc(S(=O)(=O)[O-])cc3C2(C)C)=[N+](CC(=O)O)c2ccc(S(=O)(=O)[O-])cc21.[Na+] [Compound 4] | 67% | 74% | 57% | 71% | 50% |
| CC1(C)C(/C=C/C=C/C=C/C=C2/N(CCCCC(=O)O)c3ccc(S(=O)(=O)O)cc3C2(C)C)=[N+](CCCCC(=O)O)c2ccc(S(=O)(=O)O)cc21.[Na+].[Na+] [Compound 6] | 88% | 88% |  | 79% | 59% |
| CC1(C)C(=CC=CC=CC=CC2=[N+](CCP(=O)([O-])[O-])c3ccc(S(=O)(=O)[O-])cc3C2(C)C)N(CCP(=O)([O-])[O-])c2ccc(S(=O)(=O)[O-])cc21.[Na+].[Na+].[Na+].[Na+].[Na+] [Compound 9] | 61% | 56% | 46% | 67% | 50% |
| CC1(C)C(/C=C/C=C/C=C/C=C2/N(CCCP(=O)(O)O)c3ccc(S(=O)(=O)O)cc3C2(C)C)=[N+](CCCP(=O)(O)O)c2ccc(S(=O)(=O)O)cc21.[Na+].[Na+].[Na+].[Na+].[Na+].[Na+] [Compound 10] |  |  | 53% |  | 52% |
| CC1(C)C(/C=C/C=C(/C=C/C=C2\N(CCP(=O)([O-])[O-])c3ccc(S(=O)(=O)[O-])cc3C2(C)C)c2ccccc2)=[N+](CCP(=O)([O-])[O-])c2ccc(S(=O)(=O)[O-])cc21.[Na+].[Na+].[Na+].[Na+].[Na+] [Compound 11] | 98% | 98% | 91% | 97% | 83% |
| CC1(C)C(/C=C/C=C(/C=C/C=C2\N(CCCP(=O)([O-])[O-])c3ccc(S(=O)(=O)[O-])cc3C2(C)C)c2ccccc2)=[N+](CCCP(=O)([O-])[O-])c2ccc(S(=O)(=O)[O-])cc21.[Na+].[Na+].[Na+].[Na+].[Na+] [Compound 12] | 95% | 95% | 91% | 93% | 82% |
| CC1(C)C(/C=C/C=C/C=C/C=C2/N(CCC(=O)[O-])c3ccc(P(=O)([O-])[O-])cc3C2(C)C)=[N+](CCC(=O)[O-])c2ccc(P(=O)([O-])[O-])cc21.[Na+].[Na+].[Na+].[Na+].[Na+] [Compound 13] | 87% | 89% |  | 90% |  |
| CC1(C)C(/C=C/C=C/C=C/C=C2/N(CCS(=O)(=O)[O-])c3ccc(P(=O)([O-])[O-])cc3C2(C)C)=[N+](CCS(=O)(=O)[O-])c2ccc(P(=O)([O-])[O-])cc21.[Na+].[Na+].[Na+].[Na+].[Na+] [Compound 14] | 87% | 94% |  | 95% | 71% |
| CC1(C)C(/C=C/C=C(/C=C/C=C2\N(CCS(=O)(=O)[O-])c3ccc(P(=O)([O-])[O-])cc3C2(C)C)c2ccccc2)=[N+](CCS(=O)(=O)[O-])c2ccc(P(=O)([O-])[O-])cc21.[Na+].[Na+].[Na+].[Na+].[Na+] [Compound 15] | 94% | 93% |  | 96% |  |

Results, then the molecule that gave them:

| Plasma protein binding rate (%) rabbit (plasma protein [1]) | Plasma protein binding rate (%) human (plasma protein [2]) | Plasma protein binding rate (%) mouse (plasma protein [3]) | Plasma protein binding rate (%) monkey (plasma protein [4]) | Plasma protein binding rate (%) dog (plasma protein [5]) | Compound |
| --- | --- | --- | --- | --- | --- |
| 95% | 95% | 77% | 92% | 77% | CC1(C)C(/C=C/C=C(/C=C/C=C2\N(CCC(=O)[O-])c3ccc(P(=O)([O-])[O-])cc3C2(C)C)c2ccccc2)=[N+](CCC(=O)[O-])c2ccc(P(=O)([O-])[O-])cc21.[Na+].[Na+].[Na+].[Na+].[Na+] [Compound 16] |
| 79% | 93% | 63% | 91% | 59% | CC(/C=C/C=C1\N(CCC(=O)[O-])c2ccc(P(=O)([O-])[O-])cc2C1(C)C)=C\C=C\C1=[N+](CCC(=O)[O-])c2ccc(P(=O)([O-])[O-])cc2C1(C)C.[Na+].[Na+].[Na+].[Na+].[Na+] [Compound 17] |
| 82% | 96% | 59% | 95% |  | CC(/C=C/C=C1\N(CCS(=O)(=O)[O-])c2ccc(P(=O)([O-])[O-])cc2C1(C)C)=C\C=C\C1=[N+](CCS(=O)(=O)[O-])c2ccc(P(=O)([O-])[O-])cc2C1(C)C.[Na+].[Na+].[Na+].[Na+].[Na+] [Compound 18] |
| 79% | 82% | 27% | 87% | 29% | CC1(C)C(/C=C/C=C/C=C/C=C2\N(CCS(=O)(=O)[O-])c3ccc(S(=O)(=O)[O-])cc3C2(C)C)=[N+](CCS(=O)(=O)[O-])c2ccc(S(=O)(=O)[O-])cc21.[Na+].[Na+].[Na+] [Compound A, reference compound] |
| 88% | 92% |  | 93% |  | CC(/C=C/C=C1\N(CCS(=O)(=O)[O-])c2ccc(S(=O)(=O)[O-])cc2C1(C)C)=C\C=C\C1=[N+](CCS(=O)(=O)[O-])c2ccc(S(=O)(=O)[O-])cc2C1(C)C.[Na+].[Na+].[Na+] [Compound B, reference compound] |
